The source of these data is ChEMBL document CHEMBL1201862, “PubChem BioAssay data set” (2004).

Molecules are shown by their SMILES. Activity calls are given as the source filed them.

Data set [1] addresses Cytochrome P450 3A4 (Homo sapiens, UniProt P08684).
Data set [2] in a line: Luminescence Cell-Based Dose Response HTS to Identify Activators of Luciferase Translation or Activity in H4 […] Cells. [Related pubchem assays: 1829 (Project Summary), 1814 (Primary HTS)]. The class given is functional.
In data set [3] the target is Glyceraldehyde-3-phosphate dehydrogenase (Homo sapiens, UniProt P04406).
Sequence of Glyceraldehyde-3-phosphate dehydrogenase (P04406 whole entry): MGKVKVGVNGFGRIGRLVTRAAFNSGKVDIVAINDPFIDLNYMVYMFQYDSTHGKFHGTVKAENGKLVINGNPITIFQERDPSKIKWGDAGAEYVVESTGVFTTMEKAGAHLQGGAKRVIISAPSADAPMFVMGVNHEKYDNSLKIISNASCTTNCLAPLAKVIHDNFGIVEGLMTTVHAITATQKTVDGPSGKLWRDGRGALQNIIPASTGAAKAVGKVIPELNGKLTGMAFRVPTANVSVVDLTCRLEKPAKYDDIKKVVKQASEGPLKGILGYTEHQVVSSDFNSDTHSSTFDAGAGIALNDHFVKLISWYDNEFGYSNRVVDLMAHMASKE
Data set [4] concerns the target T1, Alkaline phosphatase, tissue-nonspecific isozyme (Homo sapiens, UniProt P05186).
T1 sequence (P05186 whole entry): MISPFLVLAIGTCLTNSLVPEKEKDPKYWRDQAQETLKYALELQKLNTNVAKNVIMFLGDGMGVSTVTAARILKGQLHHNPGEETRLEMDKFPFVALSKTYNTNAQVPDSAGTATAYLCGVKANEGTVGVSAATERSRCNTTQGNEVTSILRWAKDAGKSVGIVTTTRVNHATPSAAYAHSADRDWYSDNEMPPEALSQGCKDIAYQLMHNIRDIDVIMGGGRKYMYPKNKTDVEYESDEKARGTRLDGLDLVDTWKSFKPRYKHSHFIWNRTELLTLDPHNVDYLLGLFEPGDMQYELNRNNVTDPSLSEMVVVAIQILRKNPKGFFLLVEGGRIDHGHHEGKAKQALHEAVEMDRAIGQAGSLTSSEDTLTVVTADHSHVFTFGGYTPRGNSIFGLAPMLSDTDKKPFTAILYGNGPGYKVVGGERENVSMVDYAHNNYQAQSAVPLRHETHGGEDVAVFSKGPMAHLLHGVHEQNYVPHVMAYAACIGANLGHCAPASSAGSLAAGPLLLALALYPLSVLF
Briefly: potency against alkaline phosphatase TNAP – biochemical, luminescent, dose response, SAR follow-up (AID 1056).

The subject of data set [5] is Escherichia coli. The experiment in a line: microbe, parasite or virus in culture.
In data set [6] the target is T2, Cytochrome P450 2C9 (Homo sapiens, UniProt P11712).
T2 sequence (P11712 whole entry): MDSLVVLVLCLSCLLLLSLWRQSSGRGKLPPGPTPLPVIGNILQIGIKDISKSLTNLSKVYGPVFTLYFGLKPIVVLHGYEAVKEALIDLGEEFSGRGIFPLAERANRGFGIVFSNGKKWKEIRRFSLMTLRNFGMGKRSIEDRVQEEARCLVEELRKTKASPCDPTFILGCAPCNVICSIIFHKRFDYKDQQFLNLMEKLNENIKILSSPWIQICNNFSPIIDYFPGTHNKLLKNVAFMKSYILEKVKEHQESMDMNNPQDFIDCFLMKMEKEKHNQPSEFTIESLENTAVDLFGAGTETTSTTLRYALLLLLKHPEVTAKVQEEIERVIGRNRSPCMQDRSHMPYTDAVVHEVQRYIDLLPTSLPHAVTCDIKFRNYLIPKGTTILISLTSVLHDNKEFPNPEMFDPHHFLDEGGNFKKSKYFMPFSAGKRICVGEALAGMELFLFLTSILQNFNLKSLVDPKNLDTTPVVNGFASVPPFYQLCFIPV
Data set [7] addresses Cytochrome P450 2D6 (Homo sapiens, UniProt P10635).
For data set [8], the target named is Nonstructural protein 1 (Influenza A virus, UniProt Q194T2). The class given is functional, Influenza A virus (A/California/07/2009(H1N1)).
Sequence of Nonstructural protein 1 (Q194T2 whole entry): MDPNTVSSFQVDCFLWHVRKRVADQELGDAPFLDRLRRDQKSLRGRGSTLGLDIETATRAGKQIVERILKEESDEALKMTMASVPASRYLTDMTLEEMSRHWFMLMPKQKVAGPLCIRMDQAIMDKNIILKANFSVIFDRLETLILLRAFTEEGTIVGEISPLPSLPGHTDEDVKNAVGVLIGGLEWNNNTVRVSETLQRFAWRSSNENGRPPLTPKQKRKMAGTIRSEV
Data set [9] deals with Vero. The experiment in a line: cells. The format is functional, cell-based. Conditions: Chlorocebus sabaeus.
The test system of data set [10] is Vero. Briefly: cells. The class given is functional. Conditions: Chlorocebus sabaeus.
The nature of data set [11]: NIH3T3 cell viability loss – ATP luminescence, mouse fibroblasts, counter-screen, dose response (AID 2010).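 Further: cells exposed to compound for about 90 hours before reading.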 The class given is functional, cell-based. Background: The purpose of a counterscreen is to sort out artefacts and off-target activity.
The nature of data set [12]: Trypanosoma cruzi growth suppression in host cells – NIH3T3 host cells, beta-gal luminescence, confirmation (AID 2044).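 Further: intracellular parasites grown in NIH/3T3 mouse fibroblasts as host cells; luminescent beta-galactosidase reporter signal from transgenic T. cruzi replicating inside host cells; inhibitors lower the luminescence signal.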 The format is functional, cell-based.
Data set [13] deals with BJ. The experiment in a line: BJ-TERT fibroblast viability loss – cell-based, RAS-independent, luminescence, dose response (AID 1933). The format is functional. Conditions: Homo sapiens.
The nature of data set [14]: Luminescence Cell-Based Dose Response HTS to Identify Inhibitors of 5'UTR Stem-Loop Driven Prion Protein mRNA Translation in H4 Neuroglioblastoma Cells. [Related pubchem assays: 1827 (Project Summary), 1813 (Primary HTS)]. The format is functional.
Data set [15] concerns BJ. Briefly: BJ-TERT-LT-ST fibroblast viability loss – cell-based, RAS-independent, luminescence, dose response (AID 1935).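 Further: BJ fibroblasts immortalized with TERT plus LT and ST oncogenes.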 The format is functional. Conditions: Homo sapiens.
The subject of data set [16] is BJ. The experiment in a line: cells. The class given is functional, cell-based. Conditions: Homo sapiens.
Data set [17] is described as follows: luciferase reporter signal suppression in cells – H4 neuroglioma cells, luminescence, dose response (AID 1990). The class given is functional, cell-based. On the technique in general: Reporter assays use an easily measured gene product as a stand-in for the process of interest.
A short description of data set [18]: alpha-synuclein stem-loop luciferase translation blockers – H4 neuroglioma cells, luminescence, confirmation (AID 1988). The class given is functional, cell-based.
Data set [19] can be described thus: DRD fibroblast viability loss – cell-based, non-viral oncogenic, luminescence, dose response (AID 1934). Conditions: Homo sapiens. The class given is functional.
For data set [20], the system named is INS1. The experiment in a line: INS-1E survival protection against cytokine death – cell-based, luminescence, retest, dose response (AID 449756).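 Further: cell death triggered by IL-1 beta plus TNF-alpha plus IFN-gamma mixture; protective hits raise ATP signal compared with cytokine alone wells.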 The format is functional. Conditions: Rattus norvegicus.
Data set [21] addresses Cytochrome P450 2C19 (Homo sapiens, UniProt P33261). The experiment in a line: Cytochrome panel assay with activity outcomes. Panel member name: p450-cyp2c19 Compounds with AC50 equal or less than 10 uM are considered active. The format is functional. Conditions: read-out: AC50.
The nature of data set [22]: HepG2 cell cytotoxicity, dose response, cytotoxicity control for non-replicating M. tuberculosis project (AID 489018). The settings on record: Mycobacterium tuberculosis. The class given is functional.
A short description of data set [23]: THP-1 cell cytotoxicity, dose response, cytotoxicity control for non-replicating M. tuberculosis project (AID 489025). The class given is functional.
Data set [24] in a line: cells. The class given is functional.
The nature of data set [25]: microbe, parasite or virus in culture. The class given is functional. Conditions: Mycobacterium tuberculosis.
Data set [26] has as its target T3, Corticotropin-releasing factor receptor 2/Corticotropin-releasing factor-binding protein (Homo sapiens, UniProt P24387+Q13324).
T3 sequence (Q13324 whole entry): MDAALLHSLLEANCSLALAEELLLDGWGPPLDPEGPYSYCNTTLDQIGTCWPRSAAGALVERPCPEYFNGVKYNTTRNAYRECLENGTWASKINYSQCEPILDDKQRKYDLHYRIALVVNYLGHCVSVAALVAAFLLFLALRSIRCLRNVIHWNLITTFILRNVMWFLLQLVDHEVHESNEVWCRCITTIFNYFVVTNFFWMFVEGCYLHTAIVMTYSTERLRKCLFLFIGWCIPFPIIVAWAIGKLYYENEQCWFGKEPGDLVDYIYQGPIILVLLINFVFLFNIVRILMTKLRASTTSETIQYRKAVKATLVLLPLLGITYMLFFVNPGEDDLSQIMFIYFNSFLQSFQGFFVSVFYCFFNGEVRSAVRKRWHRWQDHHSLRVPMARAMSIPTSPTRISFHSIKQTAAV
T3 sequence (P24387 whole entry): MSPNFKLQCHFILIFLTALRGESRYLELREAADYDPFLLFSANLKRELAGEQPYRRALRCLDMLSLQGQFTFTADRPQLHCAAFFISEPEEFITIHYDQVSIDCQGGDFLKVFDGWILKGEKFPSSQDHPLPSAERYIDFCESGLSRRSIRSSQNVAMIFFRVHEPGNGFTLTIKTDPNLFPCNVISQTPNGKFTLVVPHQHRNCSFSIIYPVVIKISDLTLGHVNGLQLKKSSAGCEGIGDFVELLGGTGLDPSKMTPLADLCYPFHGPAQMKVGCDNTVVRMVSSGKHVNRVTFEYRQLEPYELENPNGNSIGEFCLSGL
Briefly: Dose Response confirmation of uHTS hits for small molecule antagonists of the CRF-binding protein and CRF-R2 receptor complex. The class given is functional. Conditions: read-out: IC50_Mean.

Data set [27] concerns the target T3, Corticotropin-releasing factor receptor 2/Corticotropin-releasing factor-binding protein. Briefly: activators of CRF receptor 2 with binding protein – uHTS hits, confirmation (AID 602473). The format is functional. The settings on record: read-out: EC50_Mean.
Data set [28] deals with T2, Cytochrome P450 2C9. The source holds these as a separate data set.

Sequence of Cytochrome P450 3A4 (P08684 whole entry): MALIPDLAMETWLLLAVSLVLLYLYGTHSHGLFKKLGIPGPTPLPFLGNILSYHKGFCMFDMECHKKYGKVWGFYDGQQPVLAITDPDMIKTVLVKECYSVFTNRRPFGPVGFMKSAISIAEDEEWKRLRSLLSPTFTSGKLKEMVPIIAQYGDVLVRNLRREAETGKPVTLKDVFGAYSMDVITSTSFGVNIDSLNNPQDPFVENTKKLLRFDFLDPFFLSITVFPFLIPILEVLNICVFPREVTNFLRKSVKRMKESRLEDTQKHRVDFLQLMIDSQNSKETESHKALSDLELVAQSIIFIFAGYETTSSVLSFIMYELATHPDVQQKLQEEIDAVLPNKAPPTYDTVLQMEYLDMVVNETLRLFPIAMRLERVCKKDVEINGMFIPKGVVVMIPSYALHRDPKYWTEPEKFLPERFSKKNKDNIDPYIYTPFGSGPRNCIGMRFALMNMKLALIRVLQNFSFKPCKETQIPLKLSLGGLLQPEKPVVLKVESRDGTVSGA
Sequence of Cytochrome P450 2C19 (P33261 whole entry): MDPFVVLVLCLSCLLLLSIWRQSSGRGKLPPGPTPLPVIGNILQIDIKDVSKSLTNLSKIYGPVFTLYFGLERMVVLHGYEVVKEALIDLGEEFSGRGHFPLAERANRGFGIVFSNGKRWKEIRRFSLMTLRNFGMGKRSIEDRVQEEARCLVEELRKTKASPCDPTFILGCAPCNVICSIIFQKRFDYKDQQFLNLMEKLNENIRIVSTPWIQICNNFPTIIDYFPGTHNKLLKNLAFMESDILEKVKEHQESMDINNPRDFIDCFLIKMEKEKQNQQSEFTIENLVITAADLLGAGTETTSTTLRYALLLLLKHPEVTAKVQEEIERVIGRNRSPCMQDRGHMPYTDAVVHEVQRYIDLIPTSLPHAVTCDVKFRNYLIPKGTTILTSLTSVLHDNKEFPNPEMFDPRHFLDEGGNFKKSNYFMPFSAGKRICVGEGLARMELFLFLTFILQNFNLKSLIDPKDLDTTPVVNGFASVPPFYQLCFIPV
Sequence of Cytochrome P450 2D6 (P10635 whole entry): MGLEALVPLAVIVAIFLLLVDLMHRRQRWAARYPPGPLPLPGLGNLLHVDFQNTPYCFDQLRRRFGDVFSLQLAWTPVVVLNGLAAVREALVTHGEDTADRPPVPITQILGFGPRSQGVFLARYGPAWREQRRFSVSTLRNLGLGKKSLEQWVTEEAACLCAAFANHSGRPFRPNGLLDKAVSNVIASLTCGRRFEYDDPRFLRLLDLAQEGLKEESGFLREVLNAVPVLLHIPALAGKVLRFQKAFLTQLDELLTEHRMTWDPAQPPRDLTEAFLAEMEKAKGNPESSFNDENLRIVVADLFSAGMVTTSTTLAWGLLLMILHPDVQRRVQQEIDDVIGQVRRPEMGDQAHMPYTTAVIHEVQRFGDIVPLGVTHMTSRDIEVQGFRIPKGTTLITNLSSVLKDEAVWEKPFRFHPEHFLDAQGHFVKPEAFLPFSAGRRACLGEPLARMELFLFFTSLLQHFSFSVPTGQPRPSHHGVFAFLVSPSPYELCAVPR

`O=S(=O)(c1ccccc1)N1CCC2(CCN(C(c3ccccc3)c3ccccc3)CC2)CC1`: the AC50 (commonly the midpoint of the concentration-response curve, whichever way the signal moves) in data set [1] is listed as “inconclusive”.

In the case of `CCOC(=O)c1cc(-c2ccc3c(c2)OCCO3)n[nH]1`, the EC50 in data set [2] was 345 nM (active). In addition, the IC50 was > 100 µM (not active) in [3] and 6.04 µM (active) in [4].

In the case of `COc1cccc(NC(=O)c2cccc(C(=O)Nc3cccc(OC)c3)n2)c1`, in [5], the AC50 was 32.4 µM (active).

In the case of `COc1ccccc1NC(=O)CN1CCC(C(=O)c2ccc(F)cc2)CC1`, the AC50 result in data set [6] was “inconclusive”; in data set [7] it was 25.1 µM (inconclusive).

Regarding `c1ccc(COc2nsnc2N2CCOCC2)cc1`, the IC50 in data set [8] is > 100 µM (active).

For the compound `O=S(=O)(c1ccc(Cl)cc1)N1CCN(C(=S)Nc2ccc(F)c(Cl)c2)CC1`, in [9], the IC50 is > 25 µM (active). The CC50 in data set [10] was > 25 µM (active).

For the compound `CCOC(=O)C1C(=O)C=C(c2ccc(C)cc2)CC1c1ccco1` (configuration not stated), the AC50 entry in data set [1] is given as “inconclusive”.

With `CC1C(=O)C(C)C(c2ccc(Br)cc2)NC1c1ccc(Br)cc1` (configuration not stated), the EC50 was > 60 µM (not active) in data set [11] and 1.11 µM (active) in [12]. For the same compound, the CC50 in [10] is > 25 µM (active).

In the case of `C=CC/N=c1/scc(-c2ccccc2)n1/N=C/c1ccccn1`, the IC50 in data set [9] is 0.98 µM (active).

As for `NC(=O)C1CCN(c2oc(-c3ccccc3)nc2S(=O)(=O)c2ccc(Br)cc2)CC1`, the IC50 in [8] was > 100 µM (active).

On to `Cc1cc(C(=O)OCC(=O)NCc2ccco2)c(C)n1-c1ccc(F)cc1`, for which the EC50 in data set [13] was 9.71 µM (inconclusive); in data set [14], 9.52 µM (active); in data set [15] it was 4.61 µM (active); in data set [16], 36 µM (active); in data set [17], > 120 µM (not active); in [18], 4.93 µM (active). Besides, in [19], the EC50 is 16.7 µM (active).

Regarding `CCCCc1ccc(NC(=N)Nc2nc(C)cc(C)n2)cc1`, in data set [20], the AC50 is 4.27 µM (active). Further, the EC50 in data set [11] was 9.01 µM (active); in data set [12] it was 1.71 µM (active). The CC50 in data set [10] is 7.63 µM (active).

Take `CC(=O)NC1=NN(C(C)=O)C2(S1)C(=O)N(C(C)C)c1ccc(C)cc12` (configuration not stated): in data set [5], the AC50 is > 150 µM (inactive).

For `Cn1c(=O)c2c(nc(NN/C=C3/C(=O)NC(=S)N(c4ccccc4)C3=O)n2C)n(C)c1=O`, the IC50 in data set [8] was 20.9 µM (active).

As to `O=C(c1ccc([N+](=O)[O-])o1)N1CCc2ccccc21`, the CC50 in data set [10] is > 25 µM (active).

As to `CN(C)c1ncc2nc(-c3ccc(F)cc3)c(=O)n(Cc3ccc(F)cc3)c2n1`, the AC50 result in [6] and in data set [1] was “inconclusive” throughout.

As to `O=[N+]([O-])c1ccc(N2CCOCC2)cc1NC(c1ccccc1)c1ccccc1`, the IC50 in data set [8] is > 100 µM (active).

For `CCCNc1nc(NCC)nc(OC)n1`, the figures for the AC50 in data set [21] and in data set [6] were 17.8 µM (inconclusive) and “inconclusive”, respectively.

Turning to `CCOC(=O)c1c(NC(=O)c2c(-c3ccccc3)noc2C)sc(C)c1-c1ccccc1`, the EC50 in data set [11] was 12.5 µM (active); in data set [12], 0.805 µM (active). The IC50 in [9] is < 0.05 µM (active).

As for `COCCNCC(=O)NC12CC3CC(CC(C3)C1)C2`, the IC50 in [9] is 16.2 µM (active).

Regarding `CC1=NN(C(=O)c2ccc(Br)cc2)C(O)(c2ccccc2)C1` (configuration not stated), the CC50 in [22] is > 20 µM (active); in data set [23], 22.1 µM (active); in data set [25], > 40 µM (active). Moreover, the IC50 in [24] was 22.4 µM (active).

For the compound `O=C(CCCc1ccccc1)N1CCN(c2ccc([N+](=O)[O-])cc2)CC1`, the IC50 in [26] is > 47.1 µM (inactive). Also, in data set [1], the AC50 result is “inconclusive”. In data set [27], the EC50 was > 53 µM (inactive).

Take `O=C(O)C1CCC(=O)N(C2CC2)C1c1ccccc1` (configuration not stated): in [1], the AC50 result is recorded as “inconclusive”.

Regarding `Cc1ccc(S(=O)(=O)Oc2ccc(/C=C(/NC(=O)c3ccccc3)C(=O)Nc3ccccc3)cc2)cc1`, the values for the AC50 in data set [21], in data set [1] and in data set [28] were 0.316 µM (inconclusive), “inconclusive” and 316 nM (inconclusive), respectively.

On to `CC1CCN(C2=C(NS(=O)(=O)c3ccc(Br)cc3)C(=O)c3ccccc3C2=O)CC1`, for which the IC50 in [8] was 10.8 µM (active).

Regarding `O=C1CN(S(=O)(=O)c2ccccc2C(F)(F)F)CCN1`, the AC50 in data set [5] was 28.5 µM (active).

`CCCCCCCCCCCCCCCCCC(=O)O[C@H](CC(=O)O)C[N+](C)(C)C`: the half-maximal activity concentration (AC50) entry in data set [6] was “inconclusive”.

As to `C=CCc1cccc2cc(C(=O)N(CC)CC)c(=O)oc12`, the AC50 was 28.2 µM (inconclusive) in data set [21] and “inconclusive” in [6].

`CN1CCN(c2ccc([N+](=O)[O-])cc2C(=O)c2ccc(Br)cc2)CC1`: the EC50 in data set [13] was 4.96 µM (active); in data set [14] it was 12.6 µM (active); in [15] it was 5.07 µM (inconclusive); in [16] it was 28.9 µM (active); in data set [17], 11.6 µM (active); in data set [18] it was 4.21 µM (active). Besides, the EC50 in [19] is 4.11 µM (active).
